Experimental data: patent publication US20100016232A1, “Treatment Of Inflammatory Diseases With Mammal Beta Defensins” (Novozymes A/S, priority 2008, published 2010)
Where no end group is shown, it is not given here.

How the values were obtained:
Assay type in all cases: cell-based
[1] = test system: IL-1β production from human peripheral blood mononuclear cells (PBMC); test: IL-1β production from human PBMC, Cytometric Bead Array
Experimental: (§1) Peripheral blood was drawn from healthy volunteers (with approval from the relevant ethical committee in Denmark). Heparinized blood was diluted 1/1 v/v with RPMI and were subjected to Ficoll density centrifugation within 2 h of drawing. Plasma was collected from the top from individual donors and was kept on ice until it was used at 2% in the culture medium (autologous culture medium). Isolated PBMC were resuspended in autologous culture medium and seeded in 96-well culture plates with 255.000 cells per well in a total of 200 μl. […] The concentrations used for stimulation were optimized on 3 different donors in initial experiments, for LPS two different concentrations were used to be sure to be on a cytokine level that is possible to modulate. In some experiments PBMC were treated with Dexamethason and Indomethacin alone and together with LPS or LTA as a control on downregulation of inflammatory cytokines. The supernatants were collected after incubation at 37° C. for 24 hours, and stored at −80° C. until cytokine measurement. Viability was measured by Alamar Blue (Biosource, DALL 1100) in all experiments and in some cases also by MTS (Promega) according to manufacturer's instruction and was in some experiments also judged by counting of the cells by a Nucleocounter.
(§2) Cytokine production in supernatants was measured by flow cytometry with a human inflammation cytometric bead array (CBA) according to manufacturer's instructions (BD) on a FACSarray flow cytometer. The following cytokines were measured: IL-8, IL-1β, IL-10, TNF, IL-12 p70, IL-6. In some experiments, cytokines were measured by ELISA kits from R&D systems (IL-10, TNF-α, IL-1β) according to the manufacturer' instruction.

[2] = test system: IL-10 production from human peripheral blood mononuclear cells (PBMC); test: IL-10 production from human PBMC, Cytometric Bead Array
Experimental: as §1, §2

[3] = test system: TNF production from human peripheral blood mononuclear cells (PBMC); test: TNF production from human PBMC, Cytometric Bead Array
Experimental: as §1, §2

[4] = LPS 0.6 ng/ml, test compound 1 μg/ml, Table 18
[5] = LPS 0.6 ng/ml, test compound 10 μg/ml, Table 18
[6] = LPS 0.6 ng/ml, test compound 40 μg/ml, Table 18
[7] = LPS 20 ng/ml, test compound 1 μg/ml, Table 18
[8] = LPS 20 ng/ml, test compound 10 μg/ml, Table 18
[9] = LPS 20 ng/ml, test compound 40 μg/ml, Table 18
[10] = Medium, test compound 1 μg/ml, Table 18
[11] = Medium, test compound 10 μg/ml, Table 18
[12] = Medium, test compound 40 μg/ml, Table 18
[13] = LPS 0.6 ng/ml, test compound 1 μg/ml, Table 17
[14] = LPS 0.6 ng/ml, test compound 10 μg/ml, Table 17
[15] = LPS 0.6 ng/ml, test compound 40 μg/ml, Table 17
[16] = LPS 20 ng/ml, test compound 1 μg/ml, Table 17
[17] = LPS 20 ng/ml, test compound 10 μg/ml, Table 17
[18] = LPS 20 ng/ml, test compound 40 μg/ml, Table 17
[19] = Medium, test compound 1 μg/ml, Table 17
[20] = Medium, test compound 10 μg/ml, Table 17
[21] = Medium, test compound 40 μg/ml, Table 17
[22] = LPS 0.6 ng/ml, test compound 1 μg/ml, Table 16
[23] = LPS 0.6 ng/ml, test compound 10 μg/ml, Table 16
[24] = LPS 0.6 ng/ml, test compound 40 μg/ml, Table 16
[25] = LPS 20 ng/ml, test compound 1 μg/ml, Table 16
[26] = LPS 20 ng/ml, test compound 10 μg/ml, Table 16
[27] = LPS 20 ng/ml, test compound 40 μg/ml, Table 16
[28] = Medium, test compound 1 μg/ml, Table 16
[29] = Medium, test compound 10 μg/ml, Table 16
[30] = Medium, test compound 40 μg/ml, Table 16

For “rhBD2: recombinant hBD2, which is identical to hBD2 as used in Example 1 (GIGDPVTCLKSGAICHPVFCPRRYKQIGTCGLPGTKCCKKP; not fully specified; ends and bridges not checked; UniProt O15263 24-64, looked up)”, the IL-1β [1, 4] was 284 pg/mL, the “IL-1β % of control” value [1, 4] was 38% and the IL-1β [1, 5] was 214 pg/mL. The “IL-1β % of control” value [1, 5] was 29%, the IL-1β [1, 6] was 124 pg/mL and the “IL-1β % of control” value [1, 6] was 17%. For the same compound, the IL-1β [1, 7] was 1480 pg/mL, the “IL-1β % of control” value [1, 7] was 58% and the IL-1β [1, 8] was 624 pg/mL. The “IL-1β % of control” value [1, 8] was 25%, the IL-1β [1, 9] was 395 pg/mL and the “IL-1β % of control” value [1, 9] was 16%. It also gave an IL-1β [1, 10] of 0 pg/mL, an IL-1β [1, 11] of 0 pg/mL and an IL-1β [1, 12] of 0 pg/mL. The IL-10 [2, 13] was 72 pg/mL, the “IL-10 % of control” value [2, 13] was 108% and the IL-10 [2, 14] was 103 pg/mL. For the same compound, the “IL-10 % of control” value [2, 14] was 155%, the IL-10 [2, 15] was 108 pg/mL and the “IL-10 % of control” value [2, 15] was 162%. The IL-10 [2, 16] was 126 pg/mL, the “IL-10 % of control” value [2, 16] was 113% and the IL-10 [2, 17] was 243 pg/mL. For the same compound, the “IL-10 % of control” value [2, 17] was 218%, the IL-10 [2, 18] was 281 pg/mL and the “IL-10 % of control” value [2, 18] was 252%. It also gave an IL-10 [2, 19] of 0 pg/mL, an IL-10 [2, 20] of 0 pg/mL and an IL-10 [2, 21] of 0 pg/mL. The TNF [3, 22] was 196 pg/mL, the “TNF % of control” value [3, 22] was 27% and the TNF [3, 23] was 125 pg/mL. The “TNF % of control” value [3, 23] was 17%, the TNF [3, 24] was 74 pg/mL and the “TNF % of control” value [3, 24] was 10%. The TNF [3, 25] was 918 pg/mL, the “TNF % of control” value [3, 25] was 42% and the TNF [3, 26] was 260 pg/mL. For the same compound, the “TNF % of control” value [3, 26] was 12%, the TNF [3, 27] was 167 pg/mL and the “TNF % of control” value [3, 27] was 8%. The TNF [3, 28] was 1 pg/mL, the TNF [3, 29] was 0 pg/mL and the TNF [3, 30] was 0 pg/mL.
`COc1ccc2c(c1)c(CC(=O)O)c(C)n2C(=O)c1ccc(Cl)cc1` [Indomethacin, reference compound] was tested, and the IL-1β ([1]; LPS 0.6 ng/ml, Indomethacin 0.72 ug/ml, Table 13) was 3100 pg/mL, the IL-1β ([1]; LPS 0.6 ng/ml, Indomethacin 7.2 ug/ml, Table 13) was 4100 pg/mL and the IL-1β ([1]; LPS 20 ng/ml, Indomethacin 0.72 ug/ml, Table 13) was 6460 pg/mL. The IL-1β ([1]; LPS 20 ng/ml, Indomethacin 7.2 ug/ml, Table 13) was 6120 pg/mL, the IL-1β ([1]; LTA 1.25 μg/ml, Indomethacin 0.72 ug/ml, Table 13) was 7530 pg/mL and the IL-1β ([1]; LTA 1.25 μg/ml, Indomethacin 7.2 ug/ml, Table 13) was 8910 pg/mL. For the same compound, the IL-1β ([1]; Medium, Indomethacin 0.72 ug/ml, Table 13) was 10 pg/mL, the IL-1β ([1]; Medium, Indomethacin 7.2 ug/ml, Table 13) was 40 pg/mL and the IL-10 ([2]; LPS 0.6 ng/ml, Indomethacin 0.72 ug/ml, Table 12) was 37.3 pg/mL. For the same compound, the IL-10 ([2]; LPS 0.6 ng/ml, Indomethacin 7.2 ug/ml, Table 12) was 45.7 pg/mL, the IL-10 ([2]; LPS 20 ng/ml, Indomethacin 0.72 ug/ml, Table 12) was 108.0 pg/mL and the IL-10 ([2]; LPS 20 ng/ml, Indomethacin 7.2 ug/ml, Table 12) was 77.9 pg/mL. It also gave an IL-10 ([2]; LTA 1.25 μg/ml, Indomethacin 0.72 ug/ml, Table 12) of 84.9 pg/mL, an IL-10 ([2]; LTA 1.25 μg/ml, Indomethacin 7.2 ug/ml, Table 12) of 90.4 pg/mL and an IL-10 ([2]; Medium, Indomethacin 0.72 ug/ml, Table 12) of 0.0 pg/mL. It also gave an IL-10 ([2]; Medium, Indomethacin 7.2 ug/ml, Table 12) of 0.0 pg/mL, a TNF ([3]; LPS 0.6 ng/ml, Indomethacin 0.72 ug/ml, Table 11) of […] and a TNF ([3]; LPS 0.6 ng/ml, Indomethacin 7.2 ug/ml, Table 11) of […]. It also gave a TNF ([3]; LPS 20 ng/ml, Indomethacin 0.72 ug/ml, Table 11) of […], a TNF ([3]; LPS 20 ng/ml, Indomethacin 7.2 ug/ml, Table 11) of […] and a TNF ([3]; LTA 1.25 μg/ml, Indomethacin 0.72 ug/ml, Table 11) of […]. The TNF ([3]; LTA 1.25 μg/ml, Indomethacin 7.2 ug/ml, Table 11) was […], the TNF ([3]; Medium, Indomethacin 0.72 ug/ml, Table 11) was […] and the TNF ([3]; Medium, Indomethacin 7.2 ug/ml, Table 11) was […].
For “hBD1: human beta defensin 1, SEQ ID NO:1; prepared using chemical synthesis, Peptide Institute Inc. (DHYNCVSSGGQCLYSACPIFTKIQGTCYRGKAKCCK; ends and bridges not checked; cysteine pairing not given here; listed as Homo sapiens)”, the IL-1β [1, 4] was 512 pg/mL, the “IL-1β % of control” value [1, 4] was 69% and the IL-1β [1, 5] was 401 pg/mL. For the same compound, the “IL-1β % of control” value [1, 5] was 54%, the IL-1β [1, 6] was 302 pg/mL and the “IL-1β % of control” value [1, 6] was 41%. For the same compound, the IL-1β [1, 7] was 2087 pg/mL, the “IL-1β % of control” value [1, 7] was 82% and the IL-1β [1, 8] was 1913 pg/mL. For the same compound, the “IL-1β % of control” value [1, 8] was 75%, the IL-1β [1, 9] was 1599 pg/mL and the “IL-1β % of control” value [1, 9] was 63%. The IL-1β [1, 10] was 0 pg/mL, the IL-1β [1, 11] was 0 pg/mL and the IL-1β [1, 12] was 0 pg/mL. The IL-10 [2, 13] was 71 pg/mL, the “IL-10 % of control” value [2, 13] was 108% and the IL-10 [2, 14] was 76 pg/mL. The “IL-10 % of control” value [2, 14] was 114%, the IL-10 [2, 15] was 69 pg/mL and the “IL-10 % of control” value [2, 15] was 104%. The IL-10 [2, 16] was 95 pg/mL, the “IL-10 % of control” value [2, 16] was 85% and the IL-10 [2, 17] was 100 pg/mL. The “IL-10 % of control” value [2, 17] was 90%, the IL-10 [2, 18] was 113 pg/mL and the “IL-10 % of control” value [2, 18] was 102%. It also gave an IL-10 [2, 19] of 0 pg/mL, an IL-10 [2, 20] of 0 pg/mL and an IL-10 [2, 21] of 0 pg/mL. The TNF [3, 22] was 474 pg/mL, the “TNF % of control” value [3, 22] was 65% and the TNF [3, 23] was 203 pg/mL. For the same compound, the “TNF % of control” value [3, 23] was 28%, the TNF [3, 24] was 91 pg/mL and the “TNF % of control” value [3, 24] was 13%. The TNF [3, 25] was 1395 pg/mL, the “TNF % of control” value [3, 25] was 64% and the TNF [3, 26] was 1311 pg/mL. For the same compound, the “TNF % of control” value [3, 26] was 61%, the TNF [3, 27] was 999 pg/mL and the “TNF % of control” value [3, 27] was 46%. It also gave a TNF [3, 28] of 1 pg/mL, a TNF [3, 29] of 0 pg/mL and a TNF [3, 30] of 0 pg/mL.
